Source: paper PMC5218480 (PLoS ONE, 2017)

Test system: MV-4-11 cells
Assay: Gene expression microarray analysis (Affymetrix PrimeView) and GSEA
Format: cell-based, human
Set-up: RFU PODN (11730768_x_at) / Fold change /veh PODN (11730768_x_at) / RFU LINC00158 (11744669_a_at) / Fold change /veh LINC00158 (11744669_a_at) / RFU DUSP10 (11751237_a_at) / Fold change /veh DUSP10 (11751237_a_at) / RFU ID3 (11757404_x_at) / Fold change /veh ID3 (11757404_x_at) / RFU PLEKHG5 (11737974_s_at) / Fold change /veh PLEKHG5 (11737974_s_at) / RFU LRRC4B (11730491_at) / Fold change /veh LRRC4B (11730491_at) / RFU GIMAP4 (11747438_a_at) / Fold change /veh GIMAP4 (11747438_a_at) / RFU KRT8 (11758183_x_at) / Fold change /veh KRT8 (11758183_x_at) / RFU CNN1 (11734310_a_at) / Fold change /veh CNN1 (11734310_a_at) / RFU VPS37D (11726825_at) / Fold change /veh VPS37D (11726825_at) / RFU C10orf10 (11716522_x_at) / Fold change /veh C10orf10 (11716522_x_at) / RFU KIR2DL2 /// KIR2DL4 /// KIR2DL5A /// KIR2DL5B /// KIR2DS1 /// KIR2DS2 /// KIR2DS3 /// KIR2DS4 /// KIR3DL3 /// KIR3DL3 /// KIR3DS1 (11738374_at) / Fold change /veh KIR2DL2 /// KIR2DL4 /// KIR2DL5A /// KIR2DL5B /// KIR2DS1 /// KIR2DS2 /// KIR2DS3 /// KIR2DS4 /// KIR3DL3 /// KIR3DL3 /// KIR3DS1 (11738374_at) / RFU C1QL1 (11718748_at) / Fold change /veh C1QL1 (11718748_at) / RFU TMPRSS4 (11747572_a_at) / Fold change /veh TMPRSS4 (11747572_a_at) / RFU HAMP (11756126_x_at) / Fold change /veh HAMP (11756126_x_at) / RFU RNFT2 (11725882_a_at) / Fold change /veh RNFT2 (11725882_a_at) / RFU NR4A2 (11747474_a_at) / Fold change /veh NR4A2 (11747474_a_at) / RFU ABCC12 (11746883_a_at) / Fold change /veh ABCC12 (11746883_a_at) / RFU TMEM136 (11760407_x_at) / Fold change /veh TMEM136 (11760407_x_at) / RFU CLDN22 /// WWC2 (11732394_at) / Fold change /veh CLDN22 /// WWC2 (11732394_at) / RFU HLA-DPB1 (11760878_x_at) / Fold change /veh HLA-DPB1 (11760878_x_at) / RFU SPINT1 (11716480_a_at) / Fold change /veh SPINT1 (11716480_a_at) / RFU GAP43 (11754022_s_at) / Fold change /veh GAP43 (11754022_s_at) / RFU A4GNT (11735810_at) / Fold change /veh A4GNT (11735810_at) / RFU PRB3 (11715151_x_at) / Fold change /veh PRB3 (11715151_x_at) / RFU TUBB4B (11761932_at) / Fold change /veh TUBB4B (11761932_at) / RFU CAPN14 (11732068_a_at) / Fold change /veh CAPN14 (11732068_a_at) / RFU TMCC2 (11721928_a_at) / Fold change /veh TMCC2 (11721928_a_at) / RFU IRGQ (11745062_a_at) / Fold change /veh IRGQ (11745062_a_at) / RFU FAM174B (11720279_a_at) / Fold change /veh FAM174B (11720279_a_at) / RFU TMPRSS4 (11748680_a_at) / Fold change /veh TMPRSS4 (11748680_a_at) / RFU FAM212B (11763350_a_at) / Fold change /veh FAM212B (11763350_a_at) / RFU PLEKHG5 (11743358_a_at) / Fold change /veh PLEKHG5 (11743358_a_at) / RFU ZSCAN30 (11745921_a_at) / Fold change /veh ZSCAN30 (11745921_a_at) / RFU CMKLR1 (11741424_a_at) / Fold change /veh CMKLR1 (11741424_a_at) / RFU LOC101060620 /// MAPK8IP1 (11723275_at) / Fold change /veh LOC101060620 /// MAPK8IP1 (11723275_at) / RFU SPTSSB (11747773_x_at) / Fold change /veh SPTSSB (11747773_x_at) / RFU PRSS12 (11739890_at) / Fold change /veh PRSS12 (11739890_at) / RFU BIN1 (11741810_x_at) / Fold change /veh BIN1 (11741810_x_at) / RFU WNT11 (11732464_a_at) / Fold change /veh WNT11 (11732464_a_at) / RFU C10orf10 (11716521_a_at) / Fold change /veh C10orf10 (11716521_a_at) / RFU C5orf56 (11738089_at) / Fold change /veh C5orf56 (11738089_at) / RFU CYB561 (11721691_x_at) / Fold change /veh CYB561 (11721691_x_at) / RFU ANKRD19P (11752326_a_at) / Fold change /veh ANKRD19P (11752326_a_at) / RFU OR2T12 /// OR2T33 /// OR2T8 (11738714_s_at) / Fold change /veh OR2T12 /// OR2T33 /// OR2T8 (11738714_s_at) / RFU VCAN (11748164_a_at) / Fold change /veh VCAN (11748164_a_at) / RFU JSRP1 (11732532_at) / Fold change /veh JSRP1 (11732532_at) / RFU KRTAP10-11 (11738290_x_at) / Fold change /veh KRTAP10-11 (11738290_x_at) / RFU MYO3A (11730013_a_at) / Fold change /veh MYO3A (11730013_a_at) / RFU EBF3 (11725865_a_at) / Fold change /veh EBF3 (11725865_a_at) / RFU CAMK2N1 (11719241_x_at) / Fold change /veh CAMK2N1 (11719241_x_at) / RFU C5orf56 (11738088_a_at) / Fold change /veh C5orf56 (11738088_a_at) / RFU OLFML3 (11715873_a_at) / Fold change /veh OLFML3 (11715873_a_at) / RFU LOC100653217 /// NTM (11731650_a_at) / Fold change /veh LOC100653217 /// NTM (11731650_a_at) / RFU MAPK11 (11762145_a_at) / Fold change /veh MAPK11 (11762145_a_at) / RFU FIZ1 (11724087_x_at) / Fold change /veh FIZ1 (11724087_x_at) / RFU OASL (11726364_x_at) / Fold change /veh OASL (11726364_x_at) / RFU SOX15 (11748057_x_at) / Fold change /veh SOX15 (11748057_x_at) / RFU CD79A (11719716_a_at) / Fold change /veh CD79A (11719716_a_at) / RFU HIST1H1D (11736915_at) / Fold change /veh HIST1H1D (11736915_at) / RFU CASKIN2 (11723855_a_at) / Fold change /veh CASKIN2 (11723855_a_at) / RFU LOC730098 (11760151_x_at) / Fold change /veh LOC730098 (11760151_x_at) / RFU OR4N2 (11742367_at) / Fold change /veh OR4N2 (11742367_at) / RFU PRRT2 (11749266_a_at) / Fold change /veh PRRT2 (11749266_a_at) / RFU SNX32 (11753110_a_at) / Fold change /veh SNX32 (11753110_a_at) / RFU CDHR5 (11726645_a_at) / Fold change /veh CDHR5 (11726645_a_at) / RFU RCAN1 (11760418_a_at) / Fold change /veh RCAN1 (11760418_a_at) / RFU FAM167A (11723789_a_at) / Fold change /veh FAM167A (11723789_a_at) / RFU FAM26E (11764081_at) / Fold change /veh FAM26E (11764081_at) / RFU ISYNA1 (11749810_s_at) / Fold change /veh ISYNA1 (11749810_s_at) / RFU ACY1 (11761880_at) / Fold change /veh ACY1 (11761880_at) / RFU 11764098_at / Fold change /veh 11764098_at / RFU SAMD14 (11745864_x_at) / Fold change /veh SAMD14 (11745864_x_at) / RFU NPB (11741838_a_at) / Fold change /veh NPB (11741838_a_at) / RFU TMPRSS6 (11731388_a_at) / Fold change /veh TMPRSS6 (11731388_a_at) / RFU KRTAP10-2 (11738614_at) / Fold change /veh KRTAP10-2 (11738614_at) / RFU ARHGAP8 /// PRR5-ARHGAP8 (11727945_x_at) / Fold change /veh ARHGAP8 /// PRR5-ARHGAP8 (11727945_x_at) / RFU KRTAP5-7 /// NADSYN1 (11734609_at) / Fold change /veh KRTAP5-7 /// NADSYN1 (11734609_at) / RFU RASL12 (11751679_a_at) / Fold change /veh RASL12 (11751679_a_at) / RFU CDKN2B (11736163_a_at) / Fold change /veh CDKN2B (11736163_a_at) / RFU PRF1 (11729649_at) / Fold change /veh PRF1 (11729649_at) / RFU, ZNF638 /// ZNF638-IT1 / Fold change vs veh, ZNF638 /// ZNF638-IT1 / RFU, PANK3 / Fold change vs veh, PANK3 / RFU, SH3YL1 / Fold change vs veh, SH3YL1 / RFU, ZEB2 / Fold change vs veh, ZEB2 / RFU, NRIP1 / Fold change vs veh, NRIP1 / RFU, PTTG1IP / Fold change vs veh, PTTG1IP / RFU, CAPN2 / Fold change vs veh, CAPN2 / RFU, MED14 / Fold change vs veh, MED14 / RFU, SNORA58 / Fold change vs veh, SNORA58 / RFU, C1orf63 / Fold change vs veh, C1orf63 / RFU, LRRFIP1 / Fold change vs veh, LRRFIP1 / RFU, NDUFAF7 / Fold change vs veh, NDUFAF7 / RFU, SLC12A2 / Fold change vs veh, SLC12A2 / RFU, IBTK / Fold change vs veh, IBTK / RFU, ESF1 / Fold change vs veh, ESF1 / Fold change vs veh, TMEM50B / RFU, TAOK1 / Fold change vs veh, TAOK1 / RFU, ACBD3 / Fold change vs veh, ACBD3 / RFU, TMA16 / Fold change vs veh, TMA16 / RFU, RWDD3 / Fold change vs veh, RWDD3 / RFU, BCAT1 / Fold change vs veh, BCAT1 / RFU, EDEM3 / Fold change vs veh, EDEM3 / RFU, TMEM33 / Fold change vs veh, TMEM33 / RFU, WDR75 / Fold change vs veh, WDR75 / RFU, AHCTF1 / Fold change vs veh, AHCTF1 / RFU, TFRC / Fold change vs veh, TFRC / RFU, ZDHHC17 / Fold change vs veh, ZDHHC17 / RFU, NOM1 / Fold change vs veh, NOM1 / RFU, ARL8B / Fold change vs veh, ARL8B / RFU, ZBTB11 / Fold change vs veh, ZBTB11 / RFU, TAMM41 / Fold change vs veh, TAMM41 / RFU, KIAA1704 /// LOC100996395 / Fold change vs veh, KIAA1704 /// LOC100996395 / RFU, ING1 / Fold change vs veh, ING1 / RFU, TRMT61B / Fold change vs veh, TRMT61B / RFU, FUBP3 / Fold change vs veh, FUBP3 / RFU, TP53 / Fold change vs veh, TP53 / RFU, TNKS2 / Fold change vs veh, TNKS2 / RFU, ZFP14 / Fold change vs veh, ZFP14 / RFU, ACTR2 / Fold change vs veh, ACTR2 / RFU, PPP3R1 / Fold change vs veh, PPP3R1 / RFU, PIK3R1 / Fold change vs veh, PIK3R1 / RFU, HNRNPA1 / Fold change vs veh, HNRNPA1 / RFU, RNF170 / Fold change vs veh, RNF170 / RFU, ZNF28 / Fold change vs veh, ZNF28 / RFU, RNGTT / Fold change vs veh, RNGTT / RFU, OGT / Fold change vs veh, OGT / RFU, BRD1 / Fold change vs veh, BRD1 / RFU, MARS / Fold change vs veh, MARS / RFU, ZNF655 / Fold change vs veh, ZNF655 / RFU, FAHD1 / Fold change vs veh, FAHD1 / RFU, BDP1 / Fold change vs veh, BDP1 / RFU, LRRCC1 / Fold change vs veh, LRRCC1 / RFU, ARID1A / Fold change vs veh, ARID1A / RFU, ZNF146 / Fold change vs veh, ZNF146 / RFU, ZNF330 / Fold change vs veh, ZNF330 / RFU, GPN3 / Fold change vs veh, GPN3 / RFU, C9orf123 / Fold change vs veh, C9orf123 / RFU, N4BP2L2 / Fold change vs veh, N4BP2L2 / RFU, ARFIP1 / Fold change vs veh, ARFIP1 / RFU, FAM179B / Fold change vs veh, FAM179B / RFU, BCL10 / Fold change vs veh, BCL10 / RFU, UHRF1BP1L / Fold change vs veh, UHRF1BP1L / RFU, BET1 / Fold change vs veh, BET1 / RFU, CNOT2 / Fold change vs veh, CNOT2 / RFU, ZNF268 / Fold change vs veh, ZNF268 / Fold change vs veh, ZNF507 / RFU, DGCR2 / Fold change vs veh, DGCR2 / RFU, WDSUB1 / Fold change vs veh, WDSUB1 / Fold change vs veh, HSP90B1 /// MIR3652 / RFU, ADSS / Fold change vs veh, ADSS / RFU, GK / Fold change vs veh, GK / RFU, ZNF148 / Fold change vs veh, ZNF148 / RFU, TAF9 / Fold change vs veh, TAF9 / RFU, SLC1A5 / Fold change vs veh, SLC1A5 / RFU, SLMO2 / Fold change vs veh, SLMO2 / RFU, ABCC4 / Fold change vs veh, ABCC4 / RFU, LOC101060439 /// RAP1B / Fold change vs veh, LOC101060439 /// RAP1B / RFU, RFX7 / Fold change vs veh, RFX7 / RFU, GTPBP10 / Fold change vs veh, GTPBP10 / RFU, CNEP1R1 / Fold change vs veh, CNEP1R1 / RFU, BIVM-ERCC5 /// ERCC5 / Fold change vs veh, BIVM-ERCC5 /// ERCC5 / RFU, ILF3 / Fold change vs veh, ILF3 / RFU 11762660_at / Fold change /veh 11762660_at / RFU VCAN (11757783_s_at) / Fold change /veh VCAN (11757783_s_at) / RFU DDX43 (11728927_at) / Fold change /veh DDX43 (11728927_at) / RFU KRT8 (11758188_x_at) / Fold change /veh KRT8 (11758188_x_at) / RFU NKD1 (11759106_at) / Fold change /veh NKD1 (11759106_at) / RFU SRD5A1 (11742802_a_at) / Fold change /veh SRD5A1 (11742802_a_at) / RFU TPSAB1 /// TPSB2 (11721975_s_at) / Fold change /veh TPSAB1 /// TPSB2 (11721975_s_at) / RFU GSTM3 (11746129_a_at) / Fold change /veh GSTM3 (11746129_a_at) / RFU IL23R (11737362_x_at) / Fold change /veh IL23R (11737362_x_at) / RFU TMEM51 (11727254_a_at) / Fold change /veh TMEM51 (11727254_a_at) / RFU PIWIL2 (11732686_x_at) / Fold change /veh PIWIL2 (11732686_x_at) / RFU ORM1 (11744905_x_at) / Fold change /veh ORM1 (11744905_x_at) / RFU CCDC152 (11743942_at) / Fold change /veh CCDC152 (11743942_at) / RFU ECM1 (11717891_a_at) / Fold change /veh ECM1 (11717891_a_at) / RFU IL23R (11748794_a_at) / Fold change /veh IL23R (11748794_a_at) / RFU TNFAIP8L3 (11732012_x_at) / Fold change /veh TNFAIP8L3 (11732012_x_at) / RFU MBOAT4 (11741988_at) / Fold change /veh MBOAT4 (11741988_at) / RFU 11764193_at / Fold change /veh 11764193_at / RFU TMEM53 (11763286_at) / Fold change /veh TMEM53 (11763286_at) / RFU MAGEB2 (11727129_at) / Fold change /veh MAGEB2 (11727129_at) / RFU TMEM200A (11744735_a_at) / Fold change /veh TMEM200A (11744735_a_at) / RFU CCDC152 (11751479_a_at) / Fold change /veh CCDC152 (11751479_a_at) / RFU FAM211A (11726209_a_at) / Fold change /veh FAM211A (11726209_a_at) / RFU RGS16 (11746705_a_at) / Fold change /veh RGS16 (11746705_a_at) / RFU VCAN (11755009_s_at) / Fold change /veh VCAN (11755009_s_at) / RFU RHOB (11743442_s_at) / Fold change /veh RHOB (11743442_s_at) / RFU RGS16 (11720943_a_at) / Fold change /veh RGS16 (11720943_a_at) / RFU RGS16 (11720944_at) / Fold change /veh RGS16 (11720944_at) / RFU, VPS4B / Fold change vs veh, VPS4B / RFU, CREB1 / Fold change vs veh, CREB1 / RFU, DNAJC13 / Fold change vs veh, DNAJC13 / RFU, GNAQ / Fold change vs veh, GNAQ / RFU, CDK5R1 / Fold change vs veh, CDK5R1 / RFU, ZRANB3 / Fold change vs veh, ZRANB3 / RFU, CUL4A / Fold change vs veh, CUL4A / RFU, CCNY / Fold change vs veh, CCNY / RFU, UFL1 / Fold change vs veh, UFL1 / RFU, COG3 / Fold change vs veh, COG3 / RFU, DIAPH2 / Fold change vs veh, DIAPH2 / RFU, SKA2 / Fold change vs veh, SKA2 / RFU, AFF3 / Fold change vs veh, AFF3 / RFU, LMF1 / Fold change vs veh, LMF1 / RFU, IPO11 / Fold change vs veh, IPO11 / RFU, DFFB / Fold change vs veh, DFFB / RFU, FOXP1 / Fold change vs veh, FOXP1 / RFU, CARD8 / Fold change vs veh, CARD8 / RFU, STRN3 / Fold change vs veh, STRN3 / RFU, ADK / Fold change vs veh, ADK / RFU, RASSF2 / Fold change vs veh, RASSF2 / RFU, WIPF1 / Fold change vs veh, WIPF1 / RFU, LARP1B / Fold change vs veh, LARP1B / RFU, RASA1 / Fold change vs veh, RASA1 / RFU, RB1 / Fold change vs veh, RB1 / RFU, PPFIA1 / Fold change vs veh, PPFIA1 / RFU, MAT2A / Fold change vs veh, MAT2A / RFU, CCT5 / Fold change vs veh, CCT5 / RFU, WDR92 / Fold change vs veh, WDR92 / RFU, CUX1 / Fold change vs veh, CUX1 / RFU, TTC7A / Fold change vs veh, TTC7A / RFU, TMEM135 / Fold change vs veh, TMEM135 / RFU, DEPTOR / Fold change vs veh, DEPTOR / RFU, CPM / Fold change vs veh, CPM / RFU, DNAJB6 / Fold change vs veh, DNAJB6 / RFU, CACNA2D3 / Fold change vs veh, CACNA2D3 / RFU, DTX4 / Fold change vs veh, DTX4 / RFU, TFCP2 / Fold change vs veh, TFCP2 / RFU, GMCL1 /// GMCL1P1 / Fold change vs veh, GMCL1 /// GMCL1P1 / RFU, AEBP2 / Fold change vs veh, AEBP2 / RFU, SNHG1 /// SNORD22 /// SNORD25 /// SNORD26 /// SNORD27 /// SNORD28 /// SNORD29 /// SNORD31 / Fold change vs veh, SNHG1 /// SNORD22 /// SNORD25 /// SNORD26 /// SNORD27 /// SNORD28 /// SNORD29 /// SNORD31 / Fold change (Aza/veh), C12orf56 (ProbeSet 11735607_a_at) / Fold change (ACY-1035/veh), C12orf56 (ProbeSet 11735607_a_at) / Fold change (Aza/veh), FGFR1OP (ProbeSet 11751329_s_at) / Fold change (ACY-1035/veh), FGFR1OP (ProbeSet 11751329_s_at) / Fold change (Aza/veh), VPS36 (ProbeSet 11739960_a_at) / Fold change (ACY-1035/veh), VPS36 (ProbeSet 11739960_a_at) / RFU SYPL1 (11715823_x_at) / Fold change /veh SYPL1 (11715823_x_at) / RFU IGFBP7 (11715501_s_at) / Fold change /veh IGFBP7 (11715501_s_at) / RFU REEP3 (11722064_at) / Fold change /veh REEP3 (11722064_at) / RFU IGLL1 (11728026_x_at) / Fold change /veh IGLL1 (11728026_x_at): dose or concentration left out as unconfirmed
Details: ProbeSet 11719632_a_at; LIST B

SMILES: Nc1ccc(-c2cccs2)cc1NC(=O)c1ccc2c(c1)cc(C1CC1)n2CCN1CCOCC1 [ACY-1035]
- RFU, ABCC4: 40.19 RFU
